# Values of other authors as cited in US9485971B2, “Fumarylacetoacetate hydrolase (Fah)-deficient pigs and uses thereof” (May Foundation for Medical Education and Research, priority 2010, dated 2016).
# Test system: Fah-deficient mice
smiles,measurement,setting,value
"O=C1CCCC(=O)C1C(=O)c1ccc(C(F)(F)F)cc1[N+](=O)[O-] [NTBC, 2-(2-nitro-4-trifluoro-methyl-benzoyl)-1,3 cyclohexanedione]",phenotype at suboptimal doses of NTBC,"Fah-/- mice, suboptimal doses",develop HCC and fibrosis
same,effect on liver function and neonatal lethality,Fah-deficient mice treated with NTBC,restores liver function and abolishes neonatal lethality
same,hepatocellular carcinoma penetrance rate,"suboptimal NTBC dose of 0.2 mg/kg/day, mice, within the first six months of life",exceeding 50%
